Measurements from patent publication US8697699B2, “Imidazopyrazine SYK inhibitors” (Gilead Connecticut, Inc., priority 2008, dated 2014).
Where a name gives a salt, the structure may show the parent alone.

With `COc1ccc(Nc2nc(-c3cccc(C(=O)Nc4ccc(C(=O)O)cc4C)c3)cn3ccnc23)cc1OC` (as salt: hydrochloride) [Example 2, 4-(3-(8-(3,4-dimethoxyphenylamino)imidazo[1,2-a]pyrazin-6-yl)benzamido)-3-methylbenzoic acid hydrochloride salt] the melting point was 188 to 215 °C.
`COc1ccc(Nc2nc(-c3cccc(C(=O)Nc4ccc(C(=O)OCc5ccccc5)cc4)c3)cn3ccnc23)cc1OC` [Example 3, benzyl 4-(3-(8-(3,4-dimethoxyphenylamino)imidazo[1,2-a]pyrazin-6-yl)benzamido)benzoate] gave a melting point of 154 to 160 °C.
